Assay results published in ChEMBL document CHEMBL5303766, “Data for DCP probe FHT-2344” (2022).

Experiments:
[1] = target: Dual specificity protein kinase CLK1 (Homo sapiens) (UniProt P49759); assay: CLK1 SGC Tm panel (DSF); details: for ΔTm: Compound concentration 10.0 uM
[2] = target: GABA-A receptor; anion channel (Rattus norvegicus) (UniProt O09028+P15431+P18506+P18508+P19969+P20236+P23574+P23576+P28471+P28473+P30191+P62813+P63079+P63138+Q91ZM7+Q9ES14); details: Compound concentration 10.0 uM
[3] = target: Serine/threonine-protein kinase B-raf (Homo sapiens) (UniProt P15056); assay: BRAF SGC Tm panel (DSF); details: for ΔTm: Compound concentration 10.0 uM
[4] = target: Muscarinic acetylcholine receptor M1 (Homo sapiens) (UniProt P11229); details: Compound concentration 10.0 uM
[5] = target: Sodium-dependent noradrenaline transporter (Homo sapiens, UniProt P23975); assay: GPCRScan assay: inhibition of NET; design: radioligand conc. used [nm] 1.3 – 5.0, parental cells stable HEK
[6] = target: SWI/SNF-related matrix-associated actin-dependent regulator of chromatin subfamily A member 4 (Homo sapiens, UniProt P51532); assay: Measurement of the ATPase catalytic activity using the ADP-Glo detection (SMARCA4); type: functional
[7] = target: Calcium/calmodulin-dependent protein kinase type II subunit delta (Homo sapiens) (UniProt Q13557); assay: CAMK2D SGC Tm panel (DSF); details: for ΔTm: Compound concentration 10.0 uM
[8] = target: Cell division control protein 42 homolog (Homo sapiens) (UniProt P60953); assay: CDC42 SGC Tm panel (DSF); details: for ΔTm: Compound concentration 10.0 uM
[9] = target: Casein kinase II subunit alpha' (Homo sapiens) (UniProt P19784); assay: CSNK2A2 SGC Tm panel (DSF)
[10] = target: 5-hydroxytryptamine receptor 2B (Homo sapiens, UniProt P41595); assay: GPCRScan assay: inhibition of 5-HT2B; design: radioligand conc. used [nm] 1.0 – 2.0, parental cells stable HEK
[11] = target: Sigma non-opioid intracellular receptor 1 (Homo sapiens, UniProt Q99720); assay: GPCRScan assay: inhibition of Sigma 1; design: radioligand conc. used [nm] 4.0 – 5.0, parental cells HEKT
[12] = target: SRSF protein kinase 3 (Homo sapiens) (UniProt Q9UPE1); assay: MSSK1 SGC Tm panel (DSF); details: for ΔTm: Compound concentration 10.0 uM
[13] = target: 5-hydroxytryptamine receptor 1E (Homo sapiens) (UniProt P28566); details: Compound concentration 10.0 uM
[14] = GPCRScan assay: inhibition of GABA/PBR; design: species or system Rattus norvegicus; radioligand conc. used [nm] 0.3 – 2.0, parental cells brain tissue
[15] = target: Calcium/calmodulin-dependent protein kinase kinase 2 (Homo sapiens) (UniProt Q96RR4); assay: CAMKK2 SGC Tm panel (DSF); details: for ΔTm: Compound concentration 10.0 uM
[16] = target: T1, Serine/threonine-protein kinase haspin (Homo sapiens) (UniProt Q8TF76); assay: GSG2 SGC Tm panel (DSF); details: for ΔTm: Compound concentration 10.0 uM
T1 sequence (whole entry): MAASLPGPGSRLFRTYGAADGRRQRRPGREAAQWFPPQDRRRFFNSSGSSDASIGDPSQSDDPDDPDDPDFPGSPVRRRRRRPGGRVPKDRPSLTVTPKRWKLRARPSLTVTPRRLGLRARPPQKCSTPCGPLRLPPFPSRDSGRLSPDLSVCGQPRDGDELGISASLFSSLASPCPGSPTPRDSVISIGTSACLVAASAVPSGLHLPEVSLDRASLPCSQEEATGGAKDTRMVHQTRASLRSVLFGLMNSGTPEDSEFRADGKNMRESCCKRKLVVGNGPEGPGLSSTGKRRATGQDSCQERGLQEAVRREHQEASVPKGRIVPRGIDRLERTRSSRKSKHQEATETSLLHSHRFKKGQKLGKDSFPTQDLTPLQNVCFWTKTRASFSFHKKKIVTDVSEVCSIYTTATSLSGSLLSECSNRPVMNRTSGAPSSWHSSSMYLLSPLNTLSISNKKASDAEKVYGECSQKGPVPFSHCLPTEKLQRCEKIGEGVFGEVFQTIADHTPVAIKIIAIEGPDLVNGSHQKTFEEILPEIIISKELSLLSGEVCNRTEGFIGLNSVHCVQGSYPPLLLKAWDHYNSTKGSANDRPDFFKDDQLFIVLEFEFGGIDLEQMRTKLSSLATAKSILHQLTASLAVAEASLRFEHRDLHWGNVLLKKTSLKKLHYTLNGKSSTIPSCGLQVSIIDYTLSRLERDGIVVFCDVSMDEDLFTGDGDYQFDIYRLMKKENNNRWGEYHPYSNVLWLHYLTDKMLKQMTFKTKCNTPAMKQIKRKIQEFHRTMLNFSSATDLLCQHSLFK

[17] = target: T2, Serine/threonine-protein kinase tousled-like 1 (Homo sapiens) (UniProt Q9UKI8); assay: TLK1 SGC Tm panel (DSF); details: for ΔTm: Compound concentration 10.0 uM
T2 sequence (whole entry): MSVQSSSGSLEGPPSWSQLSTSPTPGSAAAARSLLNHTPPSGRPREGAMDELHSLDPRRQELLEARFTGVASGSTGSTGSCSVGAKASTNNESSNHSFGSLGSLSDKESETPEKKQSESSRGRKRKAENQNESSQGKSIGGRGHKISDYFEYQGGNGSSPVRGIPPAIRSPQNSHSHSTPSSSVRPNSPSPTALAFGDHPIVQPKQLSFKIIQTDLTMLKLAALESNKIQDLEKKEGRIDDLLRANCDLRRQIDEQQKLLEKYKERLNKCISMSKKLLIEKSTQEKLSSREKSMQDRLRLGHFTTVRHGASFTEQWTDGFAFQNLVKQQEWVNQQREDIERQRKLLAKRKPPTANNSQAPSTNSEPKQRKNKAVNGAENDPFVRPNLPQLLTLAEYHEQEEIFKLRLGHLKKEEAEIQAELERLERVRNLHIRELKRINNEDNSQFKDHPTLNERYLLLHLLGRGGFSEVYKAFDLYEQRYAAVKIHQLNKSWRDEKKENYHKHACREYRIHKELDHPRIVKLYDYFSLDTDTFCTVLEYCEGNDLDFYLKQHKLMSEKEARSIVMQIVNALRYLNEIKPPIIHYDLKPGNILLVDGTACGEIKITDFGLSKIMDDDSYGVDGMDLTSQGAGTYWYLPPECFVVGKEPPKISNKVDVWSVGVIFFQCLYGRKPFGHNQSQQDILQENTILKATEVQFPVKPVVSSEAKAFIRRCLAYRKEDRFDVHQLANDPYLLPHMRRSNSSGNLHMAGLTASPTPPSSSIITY

[18] = target: Beta-3 adrenergic receptor (Homo sapiens) (UniProt P13945); details: Compound concentration 10.0 uM
[19] = target: Chromodomain-helicase-DNA-binding protein 4 (Homo sapiens, UniProt Q14839); assay: Measurement of the ATPase catalytic activity using the ADP-Glo detection ([…]); type: functional
[20] = target: Casein kinase II subunit alpha' (Homo sapiens) (UniProt P19784); assay: CSNK2A2A SGC Tm panel (DSF)
[21] = target: Histamine H4 receptor (Homo sapiens) (UniProt Q9H3N8); details: Compound concentration 10.0 uM

Serine/threonine-protein kinase B-raf (Homo sapiens), sequence (P15056 whole entry): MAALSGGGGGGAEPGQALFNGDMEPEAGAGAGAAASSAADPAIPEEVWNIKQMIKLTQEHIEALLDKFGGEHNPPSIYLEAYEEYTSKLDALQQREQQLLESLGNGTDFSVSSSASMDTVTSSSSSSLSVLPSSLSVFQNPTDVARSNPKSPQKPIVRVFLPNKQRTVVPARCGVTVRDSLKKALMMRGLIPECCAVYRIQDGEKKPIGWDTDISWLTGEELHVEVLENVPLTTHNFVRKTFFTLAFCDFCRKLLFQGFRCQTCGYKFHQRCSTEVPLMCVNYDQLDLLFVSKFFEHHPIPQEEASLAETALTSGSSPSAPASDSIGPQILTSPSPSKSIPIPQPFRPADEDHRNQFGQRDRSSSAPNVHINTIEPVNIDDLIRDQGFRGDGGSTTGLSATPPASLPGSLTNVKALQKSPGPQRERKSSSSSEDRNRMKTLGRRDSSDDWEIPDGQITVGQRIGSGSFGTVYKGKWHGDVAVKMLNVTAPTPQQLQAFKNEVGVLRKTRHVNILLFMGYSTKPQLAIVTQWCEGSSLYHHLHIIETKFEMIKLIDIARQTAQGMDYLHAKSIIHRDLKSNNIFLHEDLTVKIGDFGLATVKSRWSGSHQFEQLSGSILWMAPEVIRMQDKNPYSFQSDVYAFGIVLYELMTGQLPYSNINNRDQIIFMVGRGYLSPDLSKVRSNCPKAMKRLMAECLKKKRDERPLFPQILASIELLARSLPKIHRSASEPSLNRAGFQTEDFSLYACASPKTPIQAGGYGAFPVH
Cell division control protein 42 homolog (Homo sapiens), sequence (P60953 whole entry, looked up): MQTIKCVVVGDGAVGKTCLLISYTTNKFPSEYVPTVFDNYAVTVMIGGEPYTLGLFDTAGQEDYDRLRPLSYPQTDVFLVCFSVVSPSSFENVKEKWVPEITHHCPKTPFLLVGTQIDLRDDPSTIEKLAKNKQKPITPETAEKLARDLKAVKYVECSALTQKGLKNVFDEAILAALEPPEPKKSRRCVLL
SRSF protein kinase 3 (Homo sapiens), sequence (Q9UPE1 whole entry): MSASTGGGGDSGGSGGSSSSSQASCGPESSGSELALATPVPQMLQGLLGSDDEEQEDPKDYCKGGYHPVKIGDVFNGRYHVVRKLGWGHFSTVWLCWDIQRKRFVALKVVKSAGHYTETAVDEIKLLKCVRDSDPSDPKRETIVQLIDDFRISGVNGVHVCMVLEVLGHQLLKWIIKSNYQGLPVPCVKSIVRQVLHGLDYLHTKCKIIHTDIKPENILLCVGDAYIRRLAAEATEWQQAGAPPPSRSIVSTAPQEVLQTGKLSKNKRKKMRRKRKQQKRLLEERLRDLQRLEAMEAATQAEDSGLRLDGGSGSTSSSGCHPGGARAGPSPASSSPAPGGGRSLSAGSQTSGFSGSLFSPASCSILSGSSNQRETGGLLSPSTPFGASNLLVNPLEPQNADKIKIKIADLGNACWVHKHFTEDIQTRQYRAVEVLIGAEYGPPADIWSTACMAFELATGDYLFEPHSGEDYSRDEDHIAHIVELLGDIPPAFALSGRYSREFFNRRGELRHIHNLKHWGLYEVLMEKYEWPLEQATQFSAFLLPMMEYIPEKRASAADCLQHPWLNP
Casein kinase II subunit alpha' (Homo sapiens), sequence (P19784 whole entry, looked up): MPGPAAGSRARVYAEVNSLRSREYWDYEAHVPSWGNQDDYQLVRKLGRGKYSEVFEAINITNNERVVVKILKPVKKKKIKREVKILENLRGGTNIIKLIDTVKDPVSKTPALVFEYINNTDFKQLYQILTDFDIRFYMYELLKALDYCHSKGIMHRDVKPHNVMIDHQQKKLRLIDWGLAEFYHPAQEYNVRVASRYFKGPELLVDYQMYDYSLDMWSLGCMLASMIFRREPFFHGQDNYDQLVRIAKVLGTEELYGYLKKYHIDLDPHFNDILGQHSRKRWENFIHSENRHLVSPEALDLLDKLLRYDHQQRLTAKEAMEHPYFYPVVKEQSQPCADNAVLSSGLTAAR
Dual specificity protein kinase CLK1 (Homo sapiens), sequence (P49759 whole entry, looked up): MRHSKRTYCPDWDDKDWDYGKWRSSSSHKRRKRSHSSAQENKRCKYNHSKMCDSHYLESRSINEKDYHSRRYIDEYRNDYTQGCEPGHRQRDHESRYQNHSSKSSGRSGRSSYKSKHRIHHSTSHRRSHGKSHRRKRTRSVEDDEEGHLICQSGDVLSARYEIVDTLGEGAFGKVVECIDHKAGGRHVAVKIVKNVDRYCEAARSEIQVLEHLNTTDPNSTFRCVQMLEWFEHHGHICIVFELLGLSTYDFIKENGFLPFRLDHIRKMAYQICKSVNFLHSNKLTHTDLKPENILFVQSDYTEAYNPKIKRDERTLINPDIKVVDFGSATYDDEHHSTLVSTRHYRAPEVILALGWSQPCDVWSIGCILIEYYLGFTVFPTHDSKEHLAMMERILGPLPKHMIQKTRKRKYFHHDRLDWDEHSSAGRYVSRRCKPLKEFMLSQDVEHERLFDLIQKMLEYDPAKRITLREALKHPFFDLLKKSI
Calcium/calmodulin-dependent protein kinase kinase 2 (Homo sapiens), sequence (Q96RR4 2-588 limits assumed): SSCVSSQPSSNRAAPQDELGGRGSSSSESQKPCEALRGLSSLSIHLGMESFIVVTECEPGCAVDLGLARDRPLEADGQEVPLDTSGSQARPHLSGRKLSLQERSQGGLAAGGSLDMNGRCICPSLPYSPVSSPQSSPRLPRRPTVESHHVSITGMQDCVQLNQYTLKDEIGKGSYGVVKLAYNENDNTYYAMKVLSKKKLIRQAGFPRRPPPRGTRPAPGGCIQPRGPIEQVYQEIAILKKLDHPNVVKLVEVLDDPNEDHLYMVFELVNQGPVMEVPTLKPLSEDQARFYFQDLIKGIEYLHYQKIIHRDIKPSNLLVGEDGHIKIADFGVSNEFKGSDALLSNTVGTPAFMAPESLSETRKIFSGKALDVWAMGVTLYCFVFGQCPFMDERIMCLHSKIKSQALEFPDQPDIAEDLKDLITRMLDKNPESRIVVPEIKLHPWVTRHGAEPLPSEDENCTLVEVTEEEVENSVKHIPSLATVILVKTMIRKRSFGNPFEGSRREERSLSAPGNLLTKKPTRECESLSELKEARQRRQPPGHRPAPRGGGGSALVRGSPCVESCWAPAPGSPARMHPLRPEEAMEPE
Calcium/calmodulin-dependent protein kinase type II subunit delta (Homo sapiens), sequence (Q13557 whole entry): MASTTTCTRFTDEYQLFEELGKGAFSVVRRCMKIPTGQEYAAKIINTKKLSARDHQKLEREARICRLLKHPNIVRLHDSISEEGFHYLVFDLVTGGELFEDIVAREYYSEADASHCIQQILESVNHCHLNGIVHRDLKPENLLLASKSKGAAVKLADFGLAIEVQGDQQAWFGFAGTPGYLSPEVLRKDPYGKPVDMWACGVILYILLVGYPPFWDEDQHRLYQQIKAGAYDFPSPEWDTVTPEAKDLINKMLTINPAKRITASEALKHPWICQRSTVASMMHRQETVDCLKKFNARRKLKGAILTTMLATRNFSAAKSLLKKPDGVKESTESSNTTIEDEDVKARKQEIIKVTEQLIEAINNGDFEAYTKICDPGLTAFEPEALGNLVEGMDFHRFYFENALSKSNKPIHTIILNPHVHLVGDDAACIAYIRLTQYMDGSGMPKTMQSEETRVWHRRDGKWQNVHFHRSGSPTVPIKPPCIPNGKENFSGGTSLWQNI
Sigma non-opioid intracellular receptor 1, sequence (Q99720 whole entry): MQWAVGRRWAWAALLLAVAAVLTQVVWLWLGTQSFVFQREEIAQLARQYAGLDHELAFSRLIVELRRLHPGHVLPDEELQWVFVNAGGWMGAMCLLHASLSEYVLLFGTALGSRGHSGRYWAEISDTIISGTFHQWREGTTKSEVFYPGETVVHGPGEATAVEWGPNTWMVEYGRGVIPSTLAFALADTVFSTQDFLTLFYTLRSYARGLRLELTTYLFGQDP
5-hydroxytryptamine receptor 2B, sequence (P41595 whole entry): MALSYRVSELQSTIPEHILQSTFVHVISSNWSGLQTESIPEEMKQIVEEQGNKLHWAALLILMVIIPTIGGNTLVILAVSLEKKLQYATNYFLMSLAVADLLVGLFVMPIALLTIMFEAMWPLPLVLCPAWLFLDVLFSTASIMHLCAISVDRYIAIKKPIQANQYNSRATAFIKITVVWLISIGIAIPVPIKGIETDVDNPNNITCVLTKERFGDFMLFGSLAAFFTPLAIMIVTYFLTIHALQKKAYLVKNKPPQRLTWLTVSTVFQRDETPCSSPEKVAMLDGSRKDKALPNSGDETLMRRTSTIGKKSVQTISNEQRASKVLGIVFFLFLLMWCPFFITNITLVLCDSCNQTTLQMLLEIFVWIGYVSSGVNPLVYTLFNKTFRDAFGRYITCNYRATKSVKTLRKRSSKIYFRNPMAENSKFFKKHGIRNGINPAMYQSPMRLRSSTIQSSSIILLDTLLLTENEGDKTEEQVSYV
Beta-3 adrenergic receptor (Homo sapiens), sequence (P13945 whole entry, looked up): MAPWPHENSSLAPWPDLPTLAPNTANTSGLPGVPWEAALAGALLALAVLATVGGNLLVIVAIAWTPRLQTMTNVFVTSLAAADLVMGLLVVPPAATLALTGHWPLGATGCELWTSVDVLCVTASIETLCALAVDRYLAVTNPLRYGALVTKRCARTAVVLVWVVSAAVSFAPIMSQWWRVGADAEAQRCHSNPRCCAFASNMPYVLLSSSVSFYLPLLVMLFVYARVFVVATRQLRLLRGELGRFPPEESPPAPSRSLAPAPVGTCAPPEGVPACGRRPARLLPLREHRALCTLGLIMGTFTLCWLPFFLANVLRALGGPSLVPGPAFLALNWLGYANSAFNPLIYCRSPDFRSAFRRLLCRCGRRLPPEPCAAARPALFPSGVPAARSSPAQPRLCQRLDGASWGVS
5-hydroxytryptamine receptor 1E (Homo sapiens), sequence (P28566 whole entry): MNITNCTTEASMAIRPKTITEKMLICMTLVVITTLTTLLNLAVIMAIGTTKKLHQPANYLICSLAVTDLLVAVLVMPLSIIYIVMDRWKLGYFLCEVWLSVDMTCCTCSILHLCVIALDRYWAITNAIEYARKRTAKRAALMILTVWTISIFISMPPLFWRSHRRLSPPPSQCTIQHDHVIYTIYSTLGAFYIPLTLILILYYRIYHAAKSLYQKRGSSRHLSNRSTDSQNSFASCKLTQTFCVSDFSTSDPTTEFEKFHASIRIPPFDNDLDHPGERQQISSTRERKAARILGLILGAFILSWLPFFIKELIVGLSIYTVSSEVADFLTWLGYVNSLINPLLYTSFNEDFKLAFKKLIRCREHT

delta Tm Staurosporine positive control [1]	ΔTm [1]	delta Tm Staurosporine positive control [3]	ΔTm [3]	delta Tm Staurosporine positive control [7]	ΔTm [7]	delta Tm Staurosporine positive control [8]	ΔTm [8]	delta Tm Staurosporine positive control [12]	ΔTm [12]	delta Tm Staurosporine positive control [15]	ΔTm [15]	delta Tm Staurosporine positive control [16]	ΔTm [16]	delta Tm Staurosporine positive control [17]	ΔTm [17]	Structure (SMILES)	also measured
10.9	0.522	0.63	-0.0339	16	0.121	2.78	-0.206	3.67	0.0986	24.4	0.609	7.11	-1.11	9.52	1.6	C[C@H](NC(=O)c1cn(C2(C#N)CC2)cn1)C(=O)Nc1nc(-c2cccc(-c3ccn(C)n3)c2)cs1	inhibition [2]: 49.4%; inhibition [4]: 23.2%; Ki [5]: 8270 nM; IC50 [6]: 3990 nM (not active); delta Tm Staurosporine positive control [9]: 4.26; ΔTm ([9]; Compound concentration 10.0 uM): -0.217; Ki ([10]; read-out: Ki): 508 nM; Ki ([10]; read-out: pKi (converted)): 490 nM; Ki ([11]; read-out: Ki): 417 nM; Ki ([11]; read-out: pKi (converted)): 407 nM; inhibition [13]: -0.87%; Ki [14]: 1580 nM; pKi [14]: 5.81
10.9	0.489	0.63	-0.0136	16	0.157	2.78	0.57	3.67	0.376	24.4	0.325	7.11	-0.207	9.52	1.38	COC[C@H](NC(=O)c1ccn(S(C)(=O)=O)c1)C(=O)Nc1nc(-c2cccc(-c3ccn(C)n3)c2)cs1	inhibition [18]: -3.49%; IC50 [19]: > 200000 nM (not active); delta Tm Staurosporine positive control [20]: 4.26; ΔTm ([20]; Compound concentration 10.0 uM): 0.0547; inhibition [21]: -0.33%
